Data from patent US10597388B2, “Pyridazinone herbicides” (FMC CORPORATION, priority 2014, dated 2020).

How the values were obtained:
Assay type in all cases: in vivo
[1] = tested on: barnyardgrass (Echinochloa crus-galli); test: Test A greenhouse herbicide test, pre- and postemergence
Procedure, shortened: (§1)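 Seeds sown in loam–sand blend got a preemergence directed soil spray of compound in non-phytotoxic solvent with surfactant. Postemergence treatment was given at 2–10 cm, one- to two-leaf stage. After ~10 d in greenhouse, injury was rated visually vs untreated controls, 0 (no effect) to 100 (complete control).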

kochia (Kochia scoparia) = test: as above
Procedure, shortened: as §1

corn (Zea mays) = test: Test C greenhouse herbicide test, pre- and postemergence
Procedure, shortened: (§2)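 Each species was treated both before emergence, in a loam–sand soil mix, and after emergence, as 1- to 4-leaf seedlings in peat-based potting medium. Plants stayed in the greenhouse 13 to 15 d, then were scored from 0 (no effect) to 100 (complete control) relative to controls.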

[2] = tested on: crabgrass, large (large crabgrass, Digitaria sanguinalis); test: as above
Procedure, shortened: as §2

[3] = tested on: foxtail, giant (giant foxtail, Setaria faberii); test: as above
Procedure, shortened: as §2

[4] = tested on: johnsongrass (Sorghum halepense); test: as above
Procedure, shortened: as §2

[5] = tested on: lambsquarters (Chenopodium album); test: as above
Procedure, shortened: as §2

[6] = tested on: morningglory (Ipomoea coccinea); test: as above
Procedure, shortened: as §2

[7] = tested on: oilseed rape (Brassica napus); test: as above
Procedure, shortened: as §2

[8] = tested on: waterhemp (common waterhemp, Amaranthus rudis); test: as above
Procedure, shortened: as §2

[9] = tested on: wheat (winter wheat, Triticum aestivum); test: as above
Procedure, shortened: as §2

[10] = Postemergence, 125 g ai/ha, 0 to 100 scale where 0 is no effect and 100 is complete control
[11] = Postemergence, 500 g ai/ha, 0 to 100 scale, 0 is no effect, 100 is complete control
[12] = Preemergence, 125 g ai/ha, 0 to 100 scale where 0 is no effect and 100 is complete control
[13] = Preemergence, 500 g ai/ha, 0 to 100 scale where 0 is no effect and 100 is complete control
[14] = Postemergence, 31 g ai/ha, 0 to 100 scale (0 no effect, 100 complete control)
[15] = Postemergence, 125 g ai/ha, scale 0 to 100, 0 is no effect, 100 is complete control
[16] = Postemergence, 250 g ai/ha, scale 0 to 100, 0 no effect, 100 complete control, 13 to 15 d
[17] = Preemergence, 31 g ai/ha, scale 0 to 100, 0 is no effect, 100 is complete control
[18] = Preemergence, 62 g ai/ha, scale 0 to 100, 0 is no effect, 100 is complete control
[19] = Preemergence, 125 g ai/ha, scale 0 to 100, 0 is no effect, 100 is complete control
[20] = Preemergence, 250 g ai/ha, scale 0 to 100, 0 no effect, 100 complete control
[21] = postemergence, 62 g ai/ha, scale 0 to 100, 0 no effect, 100 complete control

Cc1nn(C)c(=O)c(-c2ccc(Br)c3ccccc23)c1O [Compound 75]
Plant response rating, Barnyardgrass [1, 10]: 0
Barnyardgrass plant response rating [1, 11]: 60
Barnyardgrass plant response rating [1, 12]: 40
Plant response rating, Barnyardgrass ([1]; Preemergence, 500 g ai/ha, 0 to 100 scale, 0 no effect, 100 complete control): 80
Plant response rating, Kochia (kochia (Kochia scoparia); [10]): 80
Kochia plant response rating (kochia (Kochia scoparia); [11]): 90
Kochia plant response rating (kochia (Kochia scoparia); [12]): 80
Plant response rating, Kochia (kochia (Kochia scoparia); [13]): 90
Corn plant response rating (corn (Zea mays); [14]): 5
Plant response rating, Corn (corn (Zea mays); [15]): 10
Plant response rating, Corn (corn (Zea mays); [16]): 10
Plant response rating, Corn (corn (Zea mays); [17]): 0
Plant response rating, Corn (corn (Zea mays); [18]): 5
Plant response rating, Corn (corn (Zea mays); [19]): 0
Corn plant response rating (corn (Zea mays); [20]): 10
Corn plant response rating (corn (Zea mays); [21]): 5
Crabgrass, Large plant response rating [2, 14]: 5
Plant response rating, Crabgrass, Large [2, 15]: 5
Plant response rating, Crabgrass, Large [2, 16]: 20
Plant response rating, Crabgrass, Large [2, 17]: 75
Plant response rating, Crabgrass, Large [2, 18]: 10
Plant response rating, Crabgrass, Large [2, 19]: 25
Crabgrass, Large plant response rating [2, 20]: 50
Crabgrass, Large plant response rating [2, 21]: 10
Foxtail, Giant plant response rating [3, 14]: 5
Plant response rating, Foxtail, Giant [3, 15]: 5
Plant response rating, Foxtail, Giant [3, 16]: 10
Plant response rating, Foxtail, Giant [3, 17]: 5
Plant response rating, Foxtail, Giant [3, 18]: 45
Plant response rating, Foxtail, Giant [3, 19]: 70
Foxtail, Giant plant response rating [3, 20]: 75
Foxtail, Giant plant response rating [3, 21]: 5
Johnsongrass plant response rating [4, 14]: 5
Plant response rating, Johnsongrass [4, 15]: 5
Plant response rating, Johnsongrass [4, 16]: 10
Plant response rating, Johnsongrass [4, 17]: 0
Plant response rating, Johnsongrass [4, 18]: 20
Plant response rating, Johnsongrass [4, 19]: 20
Johnsongrass plant response rating [4, 20]: 10
Johnsongrass plant response rating [4, 21]: 5
Lambsquarters plant response rating [5, 14]: 100
Plant response rating, Lambsquarters [5, 15]: 100
Plant response rating, Lambsquarters [5, 16]: 100
Plant response rating, Lambsquarters [5, 17]: 65
Plant response rating, Lambsquarters [5, 18]: 100
Plant response rating, Lambsquarters [5, 19]: 85
Lambsquarters plant response rating [5, 20]: 90
Lambsquarters plant response rating [5, 21]: 100
Morningglory plant response rating [6, 14]: 98
Plant response rating, Morningglory [6, 15]: 100
Plant response rating, Morningglory [6, 16]: 75
Plant response rating, Morningglory [6, 17]: 70
Plant response rating, Morningglory [6, 18]: 85
Plant response rating, Morningglory [6, 19]: 95
Morningglory plant response rating [6, 20]: 100
Morningglory plant response rating [6, 21]: 100
Oilseed Rape plant response rating [7, 14]: 70
Plant response rating, Oilseed Rape [7, 15]: 90
Plant response rating, Oilseed Rape [7, 16]: 80
Plant response rating, Oilseed Rape [7, 17]: 30
Plant response rating, Oilseed Rape [7, 18]: 70
Plant response rating, Oilseed Rape [7, 19]: 90
Oilseed Rape plant response rating [7, 20]: 98
Oilseed Rape plant response rating [7, 21]: 70
Waterhemp plant response rating [8, 14]: 100
Plant response rating, Waterhemp [8, 15]: 100
Plant response rating, Waterhemp [8, 16]: 100
Plant response rating, Waterhemp [8, 17]: 100
Plant response rating, Waterhemp [8, 18]: 100
Plant response rating, Waterhemp [8, 19]: 100
Waterhemp plant response rating [8, 20]: 100
Waterhemp plant response rating [8, 21]: 100
Wheat plant response rating [9, 14]: 0
Plant response rating, Wheat [9, 15]: 0
Plant response rating, Wheat [9, 16]: 0
Plant response rating, Wheat [9, 17]: 0
Plant response rating, Wheat [9, 18]: 0
Plant response rating, Wheat [9, 19]: 10
Wheat plant response rating [9, 20]: 5
Wheat plant response rating [9, 21]: 0

CC(=O)Oc1c(C)nn(C)c(=O)c1-c1c(C)cc(C)c2ccccc12 [Compound 99]
Plant response rating, Barnyardgrass [1, 10]: 20
Barnyardgrass plant response rating [1, 11]: 90
Barnyardgrass plant response rating [1, 12]: 60
Plant response rating, Barnyardgrass [1, 13]: 90
Plant response rating, Kochia (kochia (Kochia scoparia); [10]): 30
Plant response rating, Kochia (kochia (Kochia scoparia); Postemergence, 500 g ai/ha, visual rating after approx. 10 d, 0 to 100 scale (0 no effect, 100 complete control)): 70
Kochia plant response rating (kochia (Kochia scoparia); [12]): 20
Plant response rating, Kochia (kochia (Kochia scoparia); [13]): 70
Corn plant response rating (corn (Zea mays); [14]): 0
Plant response rating, Corn (corn (Zea mays); [15]): 10
Plant response rating, Corn (corn (Zea mays); [16]): 10
Plant response rating, Corn (corn (Zea mays); [17]): 5
Plant response rating, Corn (corn (Zea mays); [18]): 20
Plant response rating, Corn (corn (Zea mays); [19]): 10
Corn plant response rating (corn (Zea mays); [20]): 30
Corn plant response rating (corn (Zea mays); [21]): 5
Plant response rating, Crabgrass, Large [2, 15]: 30
Plant response rating, Crabgrass, Large [2, 16]: 50
Plant response rating, Crabgrass, Large [2, 17]: 30
Plant response rating, Crabgrass, Large [2, 18]: 35
Plant response rating, Crabgrass, Large [2, 19]: 60
Crabgrass, Large plant response rating [2, 20]: 80
Crabgrass, Large plant response rating [2, 21]: 20
Plant response rating, Foxtail, Giant [3, 15]: 30
Plant response rating, Foxtail, Giant [3, 16]: 50
Plant response rating, Foxtail, Giant [3, 17]: 40
Plant response rating, Foxtail, Giant [3, 18]: 35
Plant response rating, Foxtail, Giant [3, 19]: 65
Foxtail, Giant plant response rating [3, 20]: 90
Foxtail, Giant plant response rating [3, 21]: 15
Plant response rating, Johnsongrass [4, 15]: 10
Plant response rating, Johnsongrass [4, 16]: 5
Plant response rating, Johnsongrass [4, 17]: 0
Plant response rating, Johnsongrass [4, 18]: 0
Plant response rating, Johnsongrass [4, 19]: 0
Johnsongrass plant response rating [4, 20]: 20
Johnsongrass plant response rating [4, 21]: 10
Plant response rating, Lambsquarters [5, 15]: 85
Plant response rating, Lambsquarters [5, 16]: 98
Plant response rating, Lambsquarters [5, 17]: 25
Plant response rating, Lambsquarters [5, 18]: 80
Plant response rating, Lambsquarters [5, 19]: 100
Lambsquarters plant response rating [5, 20]: 95
Lambsquarters plant response rating [5, 21]: 75
Plant response rating, Morningglory [6, 15]: 100
Plant response rating, Morningglory [6, 16]: 100
Plant response rating, Morningglory [6, 17]: 80
Plant response rating, Morningglory [6, 18]: 85
Plant response rating, Morningglory [6, 19]: 90
Morningglory plant response rating [6, 20]: 95
Morningglory plant response rating [6, 21]: 95
Plant response rating, Oilseed Rape [7, 15]: 60
Plant response rating, Oilseed Rape [7, 16]: 55
Plant response rating, Oilseed Rape [7, 17]: 0
Plant response rating, Oilseed Rape [7, 18]: 40
Plant response rating, Oilseed Rape [7, 19]: 90
Oilseed Rape plant response rating [7, 20]: 98
Oilseed Rape plant response rating [7, 21]: 5
Plant response rating, Waterhemp [8, 15]: 95
Plant response rating, Waterhemp [8, 16]: 98
Plant response rating, Waterhemp [8, 17]: 85
Plant response rating, Waterhemp [8, 18]: 100
Plant response rating, Waterhemp [8, 19]: 98
Waterhemp plant response rating [8, 20]: 100
Waterhemp plant response rating [8, 21]: 75
Plant response rating, Wheat [9, 15]: 10
Plant response rating, Wheat [9, 16]: 10
Plant response rating, Wheat [9, 17]: 0
Plant response rating, Wheat [9, 18]: 0
Plant response rating, Wheat [9, 19]: 30
Wheat plant response rating [9, 20]: 65
Wheat plant response rating [9, 21]: 0
